# US20130040306A1, “BACKSCATTERING INTERFEROMETRIC ANALYSIS OF MEMBRANE MATERIALS” (priority 2011, published 2013)
# “Also recorded” adds a separate entry of the source.
# Legend:
# [1] = target: T1, PLCδ1 (Homo sapiens, UniProt P51178); test: BSI small molecule binding (Kd) to PLCδ1 control; settings: control protein
# T1 sequence (P51178 1-756): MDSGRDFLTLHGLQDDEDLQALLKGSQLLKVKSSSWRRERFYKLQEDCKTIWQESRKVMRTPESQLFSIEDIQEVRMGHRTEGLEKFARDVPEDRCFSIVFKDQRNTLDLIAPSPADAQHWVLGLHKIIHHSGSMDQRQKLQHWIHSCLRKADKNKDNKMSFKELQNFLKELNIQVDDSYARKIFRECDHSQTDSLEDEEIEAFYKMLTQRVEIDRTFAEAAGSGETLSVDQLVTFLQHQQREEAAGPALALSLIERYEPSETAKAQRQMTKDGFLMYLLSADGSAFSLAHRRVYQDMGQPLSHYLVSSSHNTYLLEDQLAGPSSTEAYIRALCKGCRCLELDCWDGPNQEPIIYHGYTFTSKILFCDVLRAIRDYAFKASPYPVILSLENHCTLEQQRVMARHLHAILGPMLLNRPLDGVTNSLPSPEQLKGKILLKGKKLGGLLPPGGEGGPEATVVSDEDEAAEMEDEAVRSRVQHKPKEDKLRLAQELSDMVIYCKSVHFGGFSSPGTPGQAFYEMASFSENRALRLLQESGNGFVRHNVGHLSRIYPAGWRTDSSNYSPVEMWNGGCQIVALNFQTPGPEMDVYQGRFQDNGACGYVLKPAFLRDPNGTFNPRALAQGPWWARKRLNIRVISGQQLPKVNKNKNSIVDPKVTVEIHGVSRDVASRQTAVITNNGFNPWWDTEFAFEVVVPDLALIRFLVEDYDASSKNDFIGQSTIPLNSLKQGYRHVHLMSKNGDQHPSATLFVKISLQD
# Text: (§1) For the backscattering interferometry experiments, large-unilamellar lipid vesicles are generated via extrusion for use in interfacial kinetic studies. The composition generally includes 86% mol neutral diluent (36:2 PE or 36:2 PG), 5% mol PI(4,5)P2, and 8% mol 32:0 PC. Following extrusion, bulk lipid concentration is confirmed via quantitative LC/MS. A HeNe laser beam is then directed at a sample in the channel of a microfluidic chip, resulting in an interference fringe pattern that is detected by the CCD camera. This fringe pattern shifts spatially as the refractive index (RI) of the sample changes; these shifts are translated into a numerical change in phase of the corresponding Fourier transformation. The absolute value of the magnitude in phase change corresponds to the change in solvation/hydration of the protein upon binding ligand, and can be used to plot a ligand binding curve. This inventive BSI technique can also accurately and reproducibly measure protein-lipid binding. […]
# (§2) BSI was used to measure Kd of two VU-series compounds for albumin in the absence of lipid. […] As another control to confirm that vesicle composition is not disrupted due to small molecule treatment, Kd and Ks are measured for PLCδ1, which binds PIP2 at both its PH and catalytic domains.
# [2] = target: T2, albumin (Homo sapiens, UniProt P02768); test: BSI lipid binding (Ks) with albumin after small molecule treatment; settings: small molecule treatment vs vehicle
# Text: as §1, with “curve.” for “curve. This inventive BSI technique can also accurately and reproducibly measure protein-lipid binding.”
# (§3) BSI can also be used to measure changes in lipid binding affinities due to small molecule treatment. BSI-derived values can be compared to Ks values determined using classic biochemical methods.
# as §2
# [3] = preliminary DMPK plasma protein studies; assay type: in vitro ADME
# [4] = target: T1, PLCδ1; test: BSI lipid binding (Ks) of PLCδ1 after small molecule treatment; settings: small molecule treatment vs vehicle
# Text: as §1, §2
# [5] = target: T2, albumin; test: BSI small molecule binding to albumin in the absence of lipid
# Text: as §1, §2
# [6] = target: T3, PLD1.d311 (Homo sapiens, UniProt Q13393); test: in vitro PLD activity assay (release of tritiated choline headgroup, lipid vesicles); assay type: biochemical; settings: for IC50: in vitro PLD activity assay
# T3 construct: an amino-terminally-truncated and catalytically active construct; made in house; host or cells: SF21 insect cells
# T3 sequence (Q13393 312-1074 limits assumed): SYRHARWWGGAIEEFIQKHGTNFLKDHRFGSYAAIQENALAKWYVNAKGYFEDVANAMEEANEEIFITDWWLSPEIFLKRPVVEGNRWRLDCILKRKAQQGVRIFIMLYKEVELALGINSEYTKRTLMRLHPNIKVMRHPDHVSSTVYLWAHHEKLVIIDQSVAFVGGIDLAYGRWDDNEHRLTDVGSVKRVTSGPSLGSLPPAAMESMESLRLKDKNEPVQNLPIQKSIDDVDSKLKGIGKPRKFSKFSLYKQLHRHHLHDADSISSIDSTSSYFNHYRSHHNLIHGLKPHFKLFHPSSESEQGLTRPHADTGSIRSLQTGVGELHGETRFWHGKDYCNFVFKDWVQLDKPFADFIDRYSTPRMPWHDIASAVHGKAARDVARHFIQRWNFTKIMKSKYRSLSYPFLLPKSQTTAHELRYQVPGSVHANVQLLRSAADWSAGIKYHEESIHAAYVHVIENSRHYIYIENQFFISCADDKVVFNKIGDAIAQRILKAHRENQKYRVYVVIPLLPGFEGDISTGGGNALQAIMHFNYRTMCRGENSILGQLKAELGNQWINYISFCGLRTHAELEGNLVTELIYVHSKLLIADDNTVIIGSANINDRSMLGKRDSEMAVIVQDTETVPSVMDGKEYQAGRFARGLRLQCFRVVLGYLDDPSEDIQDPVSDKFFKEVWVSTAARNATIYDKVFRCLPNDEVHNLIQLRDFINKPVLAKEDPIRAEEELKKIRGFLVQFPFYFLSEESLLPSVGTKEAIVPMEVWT
# Protocol: In vitro activity assays can be performed to measure changes in Km, and Vmax due to small molecule inhibition. This reconstitution assay uses large unilamellar vesicles (generated by extrusion of defined % mol amounts of purified lipid species) incubated with purified PLD and measures the release of a tritiated choline headgroup as a readout of catalytic activity.
# Concentration response curves were generated in a radioisotopically labelled activity assay for three VU-series compounds and tungstate with N-myr-Arf1 activated PLD1.d311. Ki measurements of these inhibitors were obtained using BSI.
# [7] = target: T4, PLD1c.d311 (Homo sapiens, UniProt Q13393); test: BSI small molecule binding to purified PLD1c.d311 in the absence of lipid; settings: for direct binding to purified PLD1c.d311 by BSI: absence of lipid
# T4 construct: an amino-terminally-truncated and catalytically active construct; made in house; host or cells: SF21 insect cells
# T4 sequence (Q13393 312-1074 limits assumed): T3 sequence (Q13393 312-1074 limits assumed)
# Text: Protein constructs that are composed of different domains of the enzyme are thus used to determine the approximate site of small molecule interaction. The bulk of the studies performed thus far use human PLD1c.d311, an amino-terminally-truncated and catalytically active construct that has robust expression in SF21 insect cells, and can be purified to homogeneity over a single affinity chromatography step. This construct does retain a small portion of the pleckstrin homology domain that is necessary for catalytic activity of the enzyme (reason for this is unknown).
# Binding studies are performed using backscattering interferometry (BSI), which can be performed on an efficient nanoscale level with a picomolar limit of detection, and can be used to measure Ki and Ks values for inhibitor-treated purified protein.
# For the backscattering interferometry experiments, large-unilamellar lipid vesicles are generated via extrusion for use in interfacial kinetic studies. The composition generally includes 86% mol neutral diluent (36:2 PE or 36:2 PG), 5% mol PI(4,5)P2, and 8% mol 32:0 PC. Following extrusion, bulk lipid concentration is confirmed via quantitative LC/MS. A HeNe laser beam is then directed at a sample in the channel of a microfluidic chip, resulting in an interference fringe pattern that is detected by the CCD camera. This fringe pattern shifts spatially as the refractive index (RI) of the sample changes; these shifts are translated into a numerical change in phase of the corresponding Fourier transformation. The absolute value of the magnitude in phase change corresponds to the change in solvation/hydration of the protein upon binding ligand, and can be used to plot a ligand binding curve. This inventive BSI technique can also accurately and reproducibly measure protein-lipid binding. This technique measures small shifts in RI phase (limit of sensitivity is picomolar) and requires only nanomolar concentrations of protein and ligand in a 1 μl volume channel.
# [8] = target: T4, PLD1c.d311; test: BSI interfacial lipid binding affinity (Ks) of PLD after small molecule treatment; settings: small molecule treated enzyme
# Text: Eukaryotic PLD is an interfacial enzyme that, in the classic model, binds the lipid surface via interaction with PI(4,5)P2 prior to hydrolyzing substrate. […] In order to study PLD, the interfacial binding affinity must first be measured (Ks), and subsequent studies must saturate lipid binding to force application of Michaelis-Menten kinetics.
# as §1, with “transformation.” for “transformation. The absolute value of the magnitude in phase change corresponds to the change in solvation/hydration of the protein upon binding ligand, and can be used to plot a ligand binding curve. This inventive BSI technique can also accurately and reproducibly measure protein-lipid binding.”
# as §3
# T2 sequence (P02768 25-609, species assumed): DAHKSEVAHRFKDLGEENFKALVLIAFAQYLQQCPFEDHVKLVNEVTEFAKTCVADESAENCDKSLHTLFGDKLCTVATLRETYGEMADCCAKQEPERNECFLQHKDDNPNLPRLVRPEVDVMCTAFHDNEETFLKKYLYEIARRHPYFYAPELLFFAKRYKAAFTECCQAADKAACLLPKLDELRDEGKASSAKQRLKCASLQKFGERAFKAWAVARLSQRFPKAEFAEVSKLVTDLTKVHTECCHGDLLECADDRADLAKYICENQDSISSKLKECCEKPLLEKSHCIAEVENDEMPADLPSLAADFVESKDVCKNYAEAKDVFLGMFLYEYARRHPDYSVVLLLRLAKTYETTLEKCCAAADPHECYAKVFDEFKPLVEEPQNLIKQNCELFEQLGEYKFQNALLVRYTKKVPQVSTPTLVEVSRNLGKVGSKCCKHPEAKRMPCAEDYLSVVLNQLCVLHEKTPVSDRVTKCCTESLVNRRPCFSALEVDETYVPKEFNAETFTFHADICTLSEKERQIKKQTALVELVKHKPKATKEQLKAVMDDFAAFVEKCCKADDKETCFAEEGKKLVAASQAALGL
structure (smiles),measurement,setting,value
C[C@@H](CN1CCC(n2c(=O)[nH]c3cc(Br)ccc32)CC1)NC(=O)[C@@H]1C[C@H]1c1ccccc1 [VU0359595],binding to PLCδ1 by BSI,[1],does not bind
same,Ks compared to vehicle (albumin control),[2],disrupted compared to vehicle
same,plasma protein bound,[3],98%
same,Ks of PLCδ1 compared to vehicle,[4],does not show shifted Ks
same,binding to albumin by BSI,[5],bind albumin
O=C(c1ccc(OCCN2CCCCC2)cc1)c1c(-c2ccc(O)cc2)sc2cc(O)ccc12 [raloxifene],PLD inhibition in vitro (in words),[6],confirmed to be PLD inhibitors in vitro
same,IC50,[6],10 µM
same,direct binding to purified PLD1c.d311 by BSI,[7],directly binds the enzyme
same,direct binding to purified PLD1c.d311 by BSI,[7]; listed as Raloxifene,directly binds the enzyme in the absence of lipid
same,shift of Ks (interfacial lipid binding) of PLD,[8],shifting Ks; also recorded: shifts Ks
CC/C(=C(\c1ccccc1)c1ccc(OCCN(C)C)cc1)c1ccccc1 [tamoxifen],PLD inhibition in vitro (in words),[6],confirmed to be PLD inhibitors in vitro
same,IC50,[6],48 µM
same,direct binding to purified PLD1c.d311 by BSI,[7],does not bind
same,mechanism of PLD inhibition,[7]; concluded from BSI measurements,indirectly inhibit PLD activity
[O]=[W](=[O])([O-])[O-] [tungstate],Ki (BSI) compared with IC50 (activity assay),"[7]; PLD1.d311, absence of lipid, vs IC50 with N-myr-Arf1 activated PLD1.d311",≤ 2 fold
same,direct binding to purified PLD1c.d311 by BSI,[7],directly binds the inhibitors in the absence of lipid
